Data: PubChem BioAssay AID1963977 (Molecular Pharmacology Branch, DTP, NCI, 2024)
“And” between values parts separate entries of the source, which are not always exact repeats. Identical values can stand only once.

Tested on: 624824-186-R-J3-PDC multicell spheroids, viability
Test: Anticancer human tumor 624824-186-R-J3-PDC patient-derived colon adenocarcinoma cell line growth inhibition [PI3K]
Conditions: for viability, T/C: stronger effect = lower value; active = viability on the fitted dose curve at most 10% of control; inactive = the rest
Source text: Combinatorial screen of targeted agents with the PI3K inhibitors inavolisib, alpelisib, duvelisib, and copanlisib in multi-cell type tumor spheroids
A high-throughput screen of multi-cell type tumor spheroids was designed to identify active combinations of targeted small molecules and PI3K pathway inhibitors. Complex spheroids include a stromal component modeled by human endothelial cells (HUVEC) and fibroblasts modeled by human mesenchymal stem cells (MSCs). The concentration ranges selected for each drug and investigational agent were based upon clinically achievable concentrations if the clinical Cmax of the agent was known.
Compounds. The drugs and investigational agents: inavolisib (NSC800729), alpelisib (NSC765974), duvelisib (NSC772469), copanlisib (NSC816437), ipatasertib (NSC767898), afuresertib (NSC778305), talazoparib (NSC767125), sapanisertib (NSC764658), selumetinib (NSC741078), tovorafenib (DAY101, NSC766906), vemurafenib (NSC761431), ravoxertinib (NSC781343), sotorasib (NSC818433), MRTX1133 (NSC 836407), abemaciclib (NSC 768073), palbociclib (NSC758247), venetoclax (NSC 766270), SY5609 (NSC837396), enzalutamide (NSC755605), and darolutamide (NSC825331), were obtained from the National Cancer Institute (NCI) Developmental Therapeutics Program Chemical Repository. The FDA-approved anticancer drug set is available from the NCI Developmental Therapeutics Program. […] The stock solutions were prepared in dimethyl sulfoxide (DMSO, Sigma-Aldrich, St. Louis, MO, cat. D2650) at 800-fold the tested concentration and stored at -70 degrees C prior to their use. All drugs and investigational agents were tested over a range starting from a high concentration at or near the clinical Cmax and decreasing in half-log increments. If the clinical Cmax for an agent had not been determined, the highest concentration tested was 10 microM.
Cell Culture. All cells were maintained in an incubator at 37 degrees C and 5% CO2 with 95% humidity. The PDC lines were cultured according to standard operating procedures established by the NCI PDMR (https://pdmr.cancer.gov/sops/default.htm). All PDCs were thawed and cultured in Matrigel-coated flasks prepared with a working solution of 1X Ham's F-12 nutrient mix, without supplementation (Invitrogen, Waltham, MA, cat. 11765054), 100 U/mL penicillin-streptomycin (Invitrogen, cat. 15140122), and 2.5% Matrigel (Corning Inc., Corning, NY, cat. 354248) for the first three passages. The 354836-022-R-J1-PDC, 475296-252-R-J1-PDC, and 997726-040-R-J2-PDC lines were cultured in 6A media, which includes advanced DMEM/F-12 (Thermo Fisher Scientific, cat. 12634028), 10 mM HEPES (Thermo Fisher Scientific, cat. 15630080), 1X GlutaMAX supplement (Thermo Fisher Scientific, cat. 35050061), 0.1 mg/mL primocin (InvivoGen, San Diego, CA, cat. ant-pm-2), 10% defined fetal bovine serum, heat inactivated (HyClone Laboratories Inc., Logan, UT, cat. SH30070.03HI), 50% L-WRN conditioned media (ATCC, cat. CRL-3276), 1.25 mM N-Acetyl-L-cysteine (Sigma-Aldrich, cat. A9165), 10 mM nicotinamide (Sigma-Aldrich, cat. N0636), 1X B-27 supplement (Thermo Fisher Scientific, cat. 17504044), 1X N-2 supplement (Thermo Fisher Scientific, cat. 17502048), and 10 microM Y-27632 dihydrochloride (Tocris Bioscience, Bristol, United Kingdom, cat. 1254). The 624824-186-R-J2-PDC line was cultured in 6C/Colon 1B media, which includes all 6A media components plus 50 ng/mL human EGF recombinant protein (Thermo Fisher Scientific, cat. PHG0311). […]
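Also: spheroids exposed to agents for seven days before luminescence read.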
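For viability, T/C in this document: luminescent signal used as a stand-in for spheroid viability; percent viability relative to DMSO vehicle control wells taken as 100%.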

Cn1ncnc1[C@H]1c2n[nH]c(=O)c3cc(F)cc(c23)N[C@@H]1c1ccc(F)cc1 + Cc1nc(NC(=O)N2CCCC2C(N)=O)sc1-c1ccnc(C(C)(C)C(F)(F)F)c1
inactive: viability, T/C (second compound 0.0316 µM, first compound 0.000316 µM) 106% | viability, T/C (second compound 0.0316 µM, first compound 0.001 µM) 106% | viability, T/C (second compound 0.0316 µM, first compound 0.00316 µM) 101% | viability, T/C (second compound 0.0316 µM, first compound 0.01 µM) 108% | viability, T/C (second compound 0.0316 µM, first compound 0.0316 µM) 111% | viability, T/C (second compound 0.0316 µM, first compound 0.1 µM) 96.7% | viability, T/C (second compound 0.1 µM, first compound 0.000316 µM) 104% | viability, T/C (second compound 0.1 µM, first compound 0.001 µM) 108% | viability, T/C (second compound 0.1 µM, first compound 0.00316 µM) 111% | viability, T/C (second compound 0.1 µM, first compound 0.01 µM) 101% | viability, T/C (second compound 0.1 µM, first compound 0.0316 µM) 101% | viability, T/C (second compound 0.1 µM, first compound 0.1 µM) 102% | viability, T/C (second compound 0.316 µM, first compound 0.000316 µM) 102% | viability, T/C (second compound 0.316 µM, first compound 0.001 µM) 115% | viability, T/C (second compound 0.316 µM, first compound 0.00316 µM) 102% | viability, T/C (second compound 0.316 µM, first compound 0.01 µM) 103% | viability, T/C (second compound 0.316 µM, first compound 0.0316 µM) 105% | viability, T/C (second compound 0.316 µM, first compound 0.1 µM) 98.8% | viability, T/C (second compound 1 µM, first compound 0.000316 µM) 96.6% | viability, T/C (second compound 1 µM, first compound 0.001 µM) 106% | viability, T/C (second compound 1 µM, first compound 0.00316 µM) 110% | viability, T/C (second compound 1 µM, first compound 0.01 µM) 83.9% | viability, T/C (second compound 1 µM, first compound 0.0316 µM) 101% | viability, T/C (second compound 1 µM, first compound 0.1 µM) 99% | viability, T/C (second compound 3.16 µM, first compound 0.000316 µM) 81% | viability, T/C (second compound 3.16 µM, first compound 0.001 µM) 83% | viability, T/C (second compound 3.16 µM, first compound 0.00316 µM) 90.8% | viability, T/C (second compound 3.16 µM, first compound 0.01 µM) 87% | viability, T/C (second compound 3.16 µM, first compound 0.0316 µM) 91.8% | viability, T/C (second compound 3.16 µM, first compound 0.1 µM) 83.6% | viability, T/C (second compound 10 µM, first compound 0.000316 µM) 70% | viability, T/C (second compound 10 µM, first compound 0.001 µM) 74.3% | viability, T/C (second compound 10 µM, first compound 0.00316 µM) 70.7% | viability, T/C (second compound 10 µM, first compound 0.01 µM) 66.7% | viability, T/C (second compound 10 µM, first compound 0.0316 µM) 67.7% | viability, T/C (second compound 10 µM, first compound 0.1 µM) 76.9%
> 0.1 µM: IC50 (curve of first compound, second compound 0.0316 µM) | IC50 (curve of first compound, second compound 0.1 µM) | IC50 (curve of first compound, second compound 0.316 µM) | IC50 (curve of first compound, second compound 1 µM) | IC50 (curve of first compound, second compound 3.16 µM) | IC50 (curve of first compound, second compound 10 µM)

CC(C)n1nc(-c2ccc3oc(N)nc3c2)c2c(N)ncnc21
inactive: viability, T/C (compound 0.000316 µM) 103% [middle of 4 runs] | viability, T/C (compound 0.001 µM) 104% and 97.2% and 101% (2×) | viability, T/C (compound 0.00316 µM) 106% [middle of 4 runs] | viability, T/C (compound 0.01 µM) 108% [middle of 4 runs] | viability, T/C (compound 0.0316 µM) 99.4% [middle of 4 runs] | viability, T/C (compound 0.1 µM) 64.2% [middle of 4 runs]
> 0.1 µM: IC50 (curve of compound)
